{"source": "paper PMC8222254", "about": "“Self-assembly of an anion receptor with metal-dependent kinase inhibition and potent in vitro anti-cancer properties” (Nature Communications, 2021)", "test_in_all_cases": "Kinase inhibition screen, cell-free 33P ATP assay at 10 μM", "type_in_all_cases": "biochemical", "key": {"[1]": {"biological_target": "T1, 140 purified human kinases (Homo sapiens, UniProt P54760)", "T1 sequence (P54760 16-987)": "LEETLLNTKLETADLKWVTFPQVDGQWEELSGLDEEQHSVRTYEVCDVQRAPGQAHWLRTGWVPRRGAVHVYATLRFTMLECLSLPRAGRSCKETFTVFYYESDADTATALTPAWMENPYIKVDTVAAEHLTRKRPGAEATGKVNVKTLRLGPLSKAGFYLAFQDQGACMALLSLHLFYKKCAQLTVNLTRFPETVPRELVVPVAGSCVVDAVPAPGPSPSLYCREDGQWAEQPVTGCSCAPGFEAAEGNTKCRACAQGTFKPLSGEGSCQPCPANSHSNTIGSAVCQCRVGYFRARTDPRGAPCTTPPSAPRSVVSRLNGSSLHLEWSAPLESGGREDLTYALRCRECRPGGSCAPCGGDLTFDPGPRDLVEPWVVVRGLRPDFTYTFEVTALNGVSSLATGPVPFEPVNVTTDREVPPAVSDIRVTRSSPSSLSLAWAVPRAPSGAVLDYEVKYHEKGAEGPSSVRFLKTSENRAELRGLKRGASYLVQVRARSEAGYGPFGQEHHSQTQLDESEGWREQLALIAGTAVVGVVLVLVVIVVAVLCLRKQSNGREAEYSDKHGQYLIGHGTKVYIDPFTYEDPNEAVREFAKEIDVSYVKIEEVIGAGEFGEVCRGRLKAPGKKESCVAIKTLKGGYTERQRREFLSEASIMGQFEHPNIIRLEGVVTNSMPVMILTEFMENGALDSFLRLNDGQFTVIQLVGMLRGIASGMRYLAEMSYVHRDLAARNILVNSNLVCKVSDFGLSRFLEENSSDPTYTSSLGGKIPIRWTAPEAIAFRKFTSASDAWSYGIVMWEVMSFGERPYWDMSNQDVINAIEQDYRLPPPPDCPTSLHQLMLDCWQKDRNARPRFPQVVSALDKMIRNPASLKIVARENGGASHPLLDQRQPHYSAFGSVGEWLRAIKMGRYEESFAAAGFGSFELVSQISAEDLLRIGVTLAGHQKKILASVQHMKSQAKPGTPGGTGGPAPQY", "method_in_brief": "(§1)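 Each complex tested in duplicate at 10 μM; cell-free radiometric assay using ^33P ATP on purified enzymes. Hits mapped by HGNC symbol onto the kinome tree.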"}, "[2]": {"biological_target": "T2, 140 purified human kinases (Homo sapiens, UniProt Q96L34)", "T2 sequence (Q96L34 1-752)": "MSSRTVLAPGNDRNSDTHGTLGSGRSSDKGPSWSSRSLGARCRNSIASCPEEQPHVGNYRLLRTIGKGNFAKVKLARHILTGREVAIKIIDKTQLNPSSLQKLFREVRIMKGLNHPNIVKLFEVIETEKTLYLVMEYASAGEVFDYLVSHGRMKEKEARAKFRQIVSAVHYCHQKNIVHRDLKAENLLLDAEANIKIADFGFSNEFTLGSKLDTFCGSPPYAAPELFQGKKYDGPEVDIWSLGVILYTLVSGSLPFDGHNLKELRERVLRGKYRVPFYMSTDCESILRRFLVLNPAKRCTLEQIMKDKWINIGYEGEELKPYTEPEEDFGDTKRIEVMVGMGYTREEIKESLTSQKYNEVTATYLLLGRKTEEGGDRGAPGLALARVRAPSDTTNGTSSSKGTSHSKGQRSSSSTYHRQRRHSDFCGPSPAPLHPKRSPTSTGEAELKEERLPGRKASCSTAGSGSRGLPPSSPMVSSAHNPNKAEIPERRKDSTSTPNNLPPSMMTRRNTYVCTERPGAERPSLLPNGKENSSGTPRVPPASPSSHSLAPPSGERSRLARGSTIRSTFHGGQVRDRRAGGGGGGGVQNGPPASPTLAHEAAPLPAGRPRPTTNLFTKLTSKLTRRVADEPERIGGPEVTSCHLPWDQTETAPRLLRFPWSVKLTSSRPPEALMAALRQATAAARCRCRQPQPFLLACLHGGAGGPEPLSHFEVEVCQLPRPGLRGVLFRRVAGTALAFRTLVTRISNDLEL", "method_in_brief": "as §1"}, "[3]": {"biological_target": "140 purified human kinases (Homo sapiens, UniProt Q13627)", "details": "DYRK1A", "method_in_brief": "as §1"}, "[4]": {"biological_target": "140 purified human kinases (Homo sapiens, UniProt P36507)", "sequence (P36507 whole entry)": "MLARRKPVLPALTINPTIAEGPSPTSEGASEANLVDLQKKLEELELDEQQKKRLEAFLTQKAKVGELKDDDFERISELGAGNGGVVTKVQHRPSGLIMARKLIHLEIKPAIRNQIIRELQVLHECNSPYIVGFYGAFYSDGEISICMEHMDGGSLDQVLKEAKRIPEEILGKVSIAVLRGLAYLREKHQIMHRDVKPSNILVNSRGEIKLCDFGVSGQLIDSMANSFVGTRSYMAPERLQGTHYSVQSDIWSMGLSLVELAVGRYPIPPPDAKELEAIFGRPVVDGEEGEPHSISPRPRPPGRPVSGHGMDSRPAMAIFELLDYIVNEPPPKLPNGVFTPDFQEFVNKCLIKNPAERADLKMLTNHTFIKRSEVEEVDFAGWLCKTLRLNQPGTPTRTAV", "method_in_brief": "as §1"}, "[5]": {"biological_target": "140 purified human kinases (Homo sapiens, UniProt Q9H422)", "sequence (Q9H422 whole entry)": "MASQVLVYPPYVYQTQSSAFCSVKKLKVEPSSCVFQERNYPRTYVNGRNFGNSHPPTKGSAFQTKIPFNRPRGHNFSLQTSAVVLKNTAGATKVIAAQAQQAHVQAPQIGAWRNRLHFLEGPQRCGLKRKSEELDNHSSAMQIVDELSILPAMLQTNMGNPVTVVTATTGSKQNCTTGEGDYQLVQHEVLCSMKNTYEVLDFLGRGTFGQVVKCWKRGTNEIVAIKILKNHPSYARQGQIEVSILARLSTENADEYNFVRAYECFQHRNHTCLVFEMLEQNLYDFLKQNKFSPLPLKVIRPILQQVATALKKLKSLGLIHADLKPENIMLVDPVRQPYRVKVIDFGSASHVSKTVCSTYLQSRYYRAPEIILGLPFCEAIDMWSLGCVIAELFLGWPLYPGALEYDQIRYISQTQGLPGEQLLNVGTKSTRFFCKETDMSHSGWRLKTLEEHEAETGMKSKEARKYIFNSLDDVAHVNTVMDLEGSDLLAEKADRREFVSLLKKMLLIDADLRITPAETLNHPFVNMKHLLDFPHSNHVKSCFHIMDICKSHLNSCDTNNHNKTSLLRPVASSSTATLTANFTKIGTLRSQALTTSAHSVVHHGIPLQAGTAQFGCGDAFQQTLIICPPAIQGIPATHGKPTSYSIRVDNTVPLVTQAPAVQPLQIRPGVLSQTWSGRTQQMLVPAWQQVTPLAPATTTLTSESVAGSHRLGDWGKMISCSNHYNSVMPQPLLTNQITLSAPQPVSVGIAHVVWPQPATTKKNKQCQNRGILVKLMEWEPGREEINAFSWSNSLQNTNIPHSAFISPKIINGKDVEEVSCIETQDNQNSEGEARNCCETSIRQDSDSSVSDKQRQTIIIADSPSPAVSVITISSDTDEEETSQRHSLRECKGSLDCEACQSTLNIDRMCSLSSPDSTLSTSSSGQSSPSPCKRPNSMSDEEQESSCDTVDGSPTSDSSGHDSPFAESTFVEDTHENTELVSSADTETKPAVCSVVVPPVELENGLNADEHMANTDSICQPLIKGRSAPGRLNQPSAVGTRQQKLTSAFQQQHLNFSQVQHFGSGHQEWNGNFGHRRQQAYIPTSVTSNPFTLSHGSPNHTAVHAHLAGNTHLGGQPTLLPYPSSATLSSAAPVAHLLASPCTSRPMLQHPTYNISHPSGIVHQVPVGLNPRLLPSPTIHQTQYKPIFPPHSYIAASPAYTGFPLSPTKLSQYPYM", "method_in_brief": "as §1"}}, "note": "Where “and” joins values, the source holds several entries; their conditions need not be identical. Equal values may be shown once.", "data": [{"smiles": "[Cu+2].[Cu+2].[Cu+2].c1ccc(-c2csc(NCCN(CCNc3nc(-c4ccccn4)cs3)CCNc3nc(-c4ccccn4)cs3)n2)nc1.c1ccc(-c2csc(NCCN(CCNc3nc(-c4ccccn4)cs3)CCNc3nc(-c4ccccn4)cs3)n2)nc1", "note": "[[L2Cu3]6+]", "values": [{"measurement": "% Inhibition Run 1", "setting": "[1]; EPH-B4", "value": 53.6, "unit": "%"}, {"measurement": "% Inhibition Run 2", "setting": "[1]; EPH-B4", "value": 47.1, "unit": "%"}, {"measurement": "% Inhibition, Mean", "setting": "[1]; EPH-B4", "value": 50, "unit": "%"}, {"measurement": "mean % activity", "setting": "[1]; EPH-B4", "value": 50, "unit": "%"}, {"measurement": "% activity", "setting": "[1]; EPH-B4, Run 1", "value": 46.4, "unit": "%"}, {"measurement": "% activity", "setting": "[1]; EPH-B4, Run 2", "value": 52.9, "unit": "%"}, {"measurement": "% Inhibition Run 1", "setting": "[2]; MARK4", "value": 52.1, "unit": "%"}, {"measurement": "% Inhibition Run 2", "setting": "[2]; MARK4", "value": 52.2, "unit": "%"}, {"measurement": "% Inhibition, Mean", "setting": "[2]; MARK4", "value": 52, "unit": "%"}, {"measurement": "mean % activity", "setting": "[2]; MARK4", "value": 48, "unit": "%"}, {"measurement": "% activity", "setting": "[2]; MARK4, Run 1", "value": 47.9, "unit": "%"}, {"measurement": "% activity", "setting": "[2]; MARK4, Run 2", "value": 47.8, "unit": "%"}, {"measurement": "% Inhibition Run 1", "setting": "[3]", "value": 18.5, "unit": "%"}, {"measurement": "% Inhibition Run 2", "setting": "[3]", "value": 12.4, "unit": "%"}, {"measurement": "% Inhibition, Mean", "setting": "[3]", "value": 15, "unit": "%"}, {"measurement": "mean % activity", "setting": "[3]", "value": 85, "unit": "%"}, {"measurement": "% activity", "setting": "[3]; Run 1", "value": 81.5, "unit": "%"}, {"measurement": "% activity", "setting": "[3]; Run 2", "value": 87.6, "unit": "%"}, {"measurement": "% Inhibition Run 1", "setting": "[4]; MKK2", "value": 70.5, "unit": "%"}, {"measurement": "% Inhibition Run 2", "setting": "[4]; MKK2", "value": 79, "unit": "%"}, {"measurement": "% Inhibition, Mean", "setting": "[4]; MKK2", "value": 75, "unit": "%"}, {"measurement": "mean % activity", "setting": "[4]; MKK2", "value": 25, "unit": "%"}, {"measurement": "% activity", "setting": "[4]; MKK2, Run 1", "value": 29.5, "unit": "%"}, {"measurement": "% activity", "setting": "[4]; MKK2, Run 2", "value": 21, "unit": "%"}, {"measurement": "% Inhibition Run 1", "setting": "[5]; HIPK3", "value": 56.3, "unit": "%"}, {"measurement": "% Inhibition Run 2", "setting": "[5]; HIPK3", "value": 58.6, "unit": "%"}, {"measurement": "% Inhibition, Mean", "setting": "[5]; HIPK3", "value": 57, "unit": "%"}, {"measurement": "mean % activity", "setting": "[5]; HIPK3", "value": 43, "unit": "%"}, {"measurement": "% activity", "setting": "[5]; HIPK3, Run 1", "value": 43.7, "unit": "%"}, {"measurement": "% activity", "setting": "[5]; HIPK3, Run 2", "value": 41.4, "unit": "%"}]}, {"smiles": "CC(=O)[O-].CC(=O)[O-].CC(=O)[O-].CC(=O)[O-].CC(=O)[O-].CC(=O)[O-].[Zn+2].[Zn+2].[Zn+2].c1ccc(-c2csc(NCCN(CCNc3nc(-c4ccccn4)cs3)CCNc3nc(-c4ccccn4)cs3)n2)nc1.c1ccc(-c2csc(NCCN(CCNc3nc(-c4ccccn4)cs3)CCNc3nc(-c4ccccn4)cs3)n2)nc1", "note": "[[L2Zn3]6+]", "values": [{"measurement": "% Inhibition, Mean", "setting": "[1]; EPH-B4", "value": 52, "unit": "%"}, {"measurement": "% Inhibition, Run 1 / Run 2", "setting": "[1]; EPH-B4", "value": 52, "unit": "%"}, {"measurement": "mean % activity", "setting": "[1]; EPH-B4", "value": 48, "unit": "%"}, {"measurement": "% activity", "setting": "[1]; EPH-B4, duplicate runs", "value": 48, "unit": "%"}, {"measurement": "% Inhibition, Mean", "setting": "[2]; MARK4", "value": 39, "unit": "%"}, {"measurement": "% Inhibition, Run 1 / Run 2", "setting": "[2]; MARK4", "value": "48% and 31%"}, {"measurement": "mean % activity", "setting": "[2]; MARK4", "value": 61, "unit": "%"}, {"measurement": "% activity", "setting": "[2]; MARK4, duplicate runs", "value": "52% and 70%"}, {"measurement": "% Inhibition, Mean", "setting": "[3]", "value": 28, "unit": "%"}, {"measurement": "% Inhibition, Run 1 / Run 2", "setting": "[3]", "value": "34% and 22%"}, {"measurement": "mean % activity", "setting": "[3]", "value": 72, "unit": "%"}, {"measurement": "% activity", "setting": "[3]; duplicate runs", "value": "67% and 78%"}, {"measurement": "% Inhibition, Mean", "setting": "[4]; MKK2", "value": 42, "unit": "%"}, {"measurement": "% Inhibition, Run 1 / Run 2", "setting": "[4]; MKK2", "value": "40% and 45%"}, {"measurement": "mean % activity", "setting": "[4]; MKK2", "value": 58, "unit": "%"}, {"measurement": "% activity", "setting": "[4]; MKK2, duplicate runs", "value": "60% and 55%"}, {"measurement": "% Inhibition, Mean", "setting": "[5]; HIPK3", "value": 15, "unit": "%"}, {"measurement": "mean % activity", "setting": "[5]; HIPK3", "value": 85, "unit": "%"}, {"measurement": "% activity", "setting": "[5]; HIPK3, duplicate runs", "value": "97% and 72%"}]}]}
